Several values for one entry are separate records, joined by “and”; a condition that tells them apart may be missing. Equal entries are not always repeated. Numbers after ± are expanded uncertainties.
Settings: Liquid; for vapor or sublimation pressure: low residence time flow method

OCCCCCCO [1,6-hexanediol]
Settings	Critical pressure [kPa]	Critical temperature [K]	vapor or sublimation pressure [kPa]
523.2 K	–	–	93.33 ± 10
552.8 K	–	–	199.3 ± 22
597.1 K	–	–	500.6 ± 54
637.1 K	–	–	1001 ± 110
685.1 K	–	–	2007 ± 220
717.6 K	–	–	3024 ± 320
740 K	–	–	4012 ± 430
740.4 K	–	–	4054 ± 440
Low residence time flow calorimetry	4080 ± 470	–	–
Low residence time flow method	–	740.8 ± 10	–

Oc1ccccc1O [1,2-benzenediol]
Settings	vapor or sublimation pressure
511.3 K	81.47 ± 3.3 kPa
535.7 K	147 ± 5.9 kPa
547 K	187.4 ± 7.6 kPa
577.6 K	349.1 ± 14 kPa
595.6 K	487.9 ± 20 kPa
597.3 K	499.4 ± 20 kPa
621.8 K	742.9 ± 30 kPa
640.1 K	988.9 ± 40 kPa
640.9 K	992.8 ± 40 kPa
692.7 K	1996 ± 80 kPa and 1995 ± 80 kPa
711.5 K	2496 ± 100 kPa
727.5 K	2993 ± 120 kPa
727.9 K	2997 ± 120 kPa
753.5 K	4007 ± 160 kPa
754.8 K	3993 ± 160 kPa

Oc1cccc(O)c1 [1,3-benzenediol]
Settings	Critical pressure [kPa]	Critical temperature [K]	vapor or sublimation pressure [kPa]
546.7 K	–	–	84.54 ± 3.4
582.6 K	–	–	192.6 ± 7.8
631.7 K	–	–	494.8 ± 20
675.9 K	–	–	994.4 ± 40
728.6 K	–	–	1994 ± 80
790.6 K	–	–	3994 ± 160
813.7 K	–	–	4999 ± 200
831.3 K	–	–	5995 ± 240
Low residence time flow calorimetry	6240 ± 620	–	–
Low residence time flow method	–	836 ± 10	–

C1CNCCN1 [piperazine]
Settings	Critical pressure [kPa]	Critical temperature [K]	vapor or sublimation pressure [kPa]
445.2 K	–	–	189.5 ± 20
471.6 K	–	–	343.6 ± 37
488.9 K	–	–	492.3 ± 53
528.1 K	–	–	992.6 ± 110
573.6 K	–	–	1994 ± 220
629.7 K	–	–	3997 ± 430
649.3 K	–	–	4994 ± 540
653.7 K	–	–	5243 ± 560
655 K	–	–	5348 ± 580
Low residence time flow calorimetry	5420 ± 320	656.3 ± 4	–

Source: the NIST ThermoML archive (doi:10.1021/je0602465)
